# According to patent publication US20170037028A1 (BAYER PHARMA AKTIENGESELLSCHAFT, priority 2013, published 2017):
# pIC50: −log10 of the molar value.
# Target: T1, GLUT2 (Homo sapiens, UniProt P11168)
# T1 construct: host or cells: DLD1 or CHO-K1
# T1 sequence (P11168 1-524): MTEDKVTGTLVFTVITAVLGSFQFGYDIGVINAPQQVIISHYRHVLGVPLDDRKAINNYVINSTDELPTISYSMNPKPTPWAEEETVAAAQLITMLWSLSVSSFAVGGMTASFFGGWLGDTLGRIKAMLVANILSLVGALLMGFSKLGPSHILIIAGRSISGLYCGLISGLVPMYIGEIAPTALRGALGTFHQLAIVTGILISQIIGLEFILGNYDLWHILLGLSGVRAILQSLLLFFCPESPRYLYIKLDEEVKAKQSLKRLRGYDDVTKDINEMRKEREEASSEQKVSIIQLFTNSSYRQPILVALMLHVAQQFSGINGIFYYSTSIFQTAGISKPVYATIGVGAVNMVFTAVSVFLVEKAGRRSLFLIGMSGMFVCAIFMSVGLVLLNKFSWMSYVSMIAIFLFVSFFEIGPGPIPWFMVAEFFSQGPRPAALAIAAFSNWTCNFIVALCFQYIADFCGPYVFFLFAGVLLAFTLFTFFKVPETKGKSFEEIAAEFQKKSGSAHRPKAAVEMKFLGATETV
# Experiment: Indirect measurement of GLUT2 activity by quantification of intracellular ATP levels (fructose induced ATP increase)
# Format: cell-based
# Details: 10 mM fructose, 1 μM Rotenone, 15 min; CellTiter-Glo ATP readout; read-out: IC50 regarding fructose induced ATP increase (GLUT2 inhibition)
# Description: Indirect Measurement of GLUT1 and GLUT2 Activity by Quantification of Intracellular ATP Levels
# It is well known that a combination of small-molecule inhibitors of mitochondrial electron transport chain and glucose catabolism synergistically suppress ATP production and impair cellular viability (Ulanovskaya et al., 2008, 2011; Liu, et al. 2001). We therefore used DLD1 or CHO-K1 cells in combination with an oxidative phosphorylation inhibitor to identify GLUT1 and GLUT2 inhibitors. Cell lines were maintained in DMEM medium supplemented with 10% FCS and 1% Penicillin-Streptomycin solution and 2% Glutamax. The cells were treated with trypsin and seeded into 384 plates at a density of 4000 cells/well. The cells were then cultured overnight in glucose free media containing 1% FCS to reduce intracellular ATP levels. […] The CellTiter-Glo® Luminescent Cell Viability Assay from Promega was then used to measure ATP Levels.
row,SMILES,pIC50
1,CNC(=O)c1nc(Cn2nc(C(F)(F)F)c(NC(=O)c3cc(C(N)=O)nc4cc(F)c(Cl)cc34)c2C)no1 [Example 1558],4.29
2,"Cc1nn(Cc2ccc(CN(C)C)cc2)c(C)c1NC(=O)c1cc(C(N)=O)nc2cc(F)ccc12 [Example 388, N^4-(1-{4-[(dimethylamino)methyl]benzyl}-3,5-dimethyl-1H-pyrazol-4-yl)-7-fluoroquinoline-2,4-dicarboxamide]",4.29
3,"CCS(=O)(=O)N1CCC(Cn2nc(C)c(NC(=O)c3cc(C(N)=O)nc4cc(F)c(Cl)cc34)c2C)CC1 [Example 415, 6-chloro-N^4-(1-{[1-(ethylsulfonyl)piperidin-4-yl]methyl}-3,5-dimethyl-1H-pyrazol-4-yl)-7-fluoroquinoline-2,4-dicarboxamide]",4.74
4,"Cc1nn(Cc2ccc(C#N)cn2)c(C)c1NC(=O)c1cc(C(N)=O)nc2cccc(F)c12 [Example 352, N^4-{1-[(5-cyanopyridin-2-yl)methyl]-3,5-dimethyl-1H-pyrazol-4-yl}-5-fluoroquinoline-2,4-dicarboxamide]",4.35
5,"COc1cc(C(=O)Nc2c(C)nn(Cc3ccc(C#N)cc3)c2C)c2ccccc2n1 [Example 15, N-[1-(4-cyanobenzyl)-3,5-dimethyl-1H-pyrazol-4-yl]-2-methoxyquinoline-4-carboxamide]",4.07
6,CCc1noc(Cn2nc(C)c(NC(=O)c3cc(C(N)=O)nc4ccccc34)c2C)n1 [Example 1571],4.44

# Target: T2, GLUT1 (Homo sapiens, UniProt P11166)
# T2 sequence (P11166 1-492): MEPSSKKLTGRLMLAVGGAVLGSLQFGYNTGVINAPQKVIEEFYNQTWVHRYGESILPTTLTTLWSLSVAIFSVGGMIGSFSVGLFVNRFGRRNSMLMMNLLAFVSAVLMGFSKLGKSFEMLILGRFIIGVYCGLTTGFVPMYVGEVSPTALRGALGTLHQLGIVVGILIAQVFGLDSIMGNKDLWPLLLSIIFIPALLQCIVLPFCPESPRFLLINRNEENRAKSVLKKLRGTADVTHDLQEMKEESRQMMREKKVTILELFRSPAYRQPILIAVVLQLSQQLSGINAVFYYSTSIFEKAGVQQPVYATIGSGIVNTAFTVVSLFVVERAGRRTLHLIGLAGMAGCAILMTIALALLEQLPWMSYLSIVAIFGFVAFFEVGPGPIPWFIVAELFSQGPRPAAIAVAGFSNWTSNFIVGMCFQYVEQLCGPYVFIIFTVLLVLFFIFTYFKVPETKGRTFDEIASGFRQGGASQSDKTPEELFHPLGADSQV
# Experiment: Indirect measurement of GLUT1 activity by quantification of intracellular ATP levels (glucose induced ATP increase)
# Format: cell-based
# Set-up: endogenous in cells; host or cells: DLD1 or CHO-K1
# Details: read-out: IC50 regarding glucose induced ATP increase (GLUT1 inhibition)
# Method in brief: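 DLD1 or CHO-K1 cells were starved overnight in glucose-free medium with 1% FCS, then combined with an oxidative phosphorylation inhibitor. GLUT1 activity was read as glucose-induced ATP increase, GLUT2 as fructose-induced. Intracellular ATP was quantified by CellTiter-Glo luminescence.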
row,SMILES,pIC50
1,CNC(=O)c1nc(Cn2nc(C(F)(F)F)c(NC(=O)c3cc(C(N)=O)nc4cc(F)c(Cl)cc34)c2C)no1 [Example 1558],7.92
2,"Cc1nn(Cc2ccc(CN(C)C)cc2)c(C)c1NC(=O)c1cc(C(N)=O)nc2cc(F)ccc12 [Example 388, N^4-(1-{4-[(dimethylamino)methyl]benzyl}-3,5-dimethyl-1H-pyrazol-4-yl)-7-fluoroquinoline-2,4-dicarboxamide]",6.97
3,"CCS(=O)(=O)N1CCC(Cn2nc(C)c(NC(=O)c3cc(C(N)=O)nc4cc(F)c(Cl)cc34)c2C)CC1 [Example 415, 6-chloro-N^4-(1-{[1-(ethylsulfonyl)piperidin-4-yl]methyl}-3,5-dimethyl-1H-pyrazol-4-yl)-7-fluoroquinoline-2,4-dicarboxamide]",8.00
4,"Cc1nn(Cc2ccc(C#N)cn2)c(C)c1NC(=O)c1cc(C(N)=O)nc2cccc(F)c12 [Example 352, N^4-{1-[(5-cyanopyridin-2-yl)methyl]-3,5-dimethyl-1H-pyrazol-4-yl}-5-fluoroquinoline-2,4-dicarboxamide]",8.60
5,"COc1cc(C(=O)Nc2c(C)nn(Cc3ccc(C#N)cc3)c2C)c2ccccc2n1 [Example 15, N-[1-(4-cyanobenzyl)-3,5-dimethyl-1H-pyrazol-4-yl]-2-methoxyquinoline-4-carboxamide]",7.94
6,CCc1noc(Cn2nc(C)c(NC(=O)c3cc(C(N)=O)nc4ccccc34)c2C)n1 [Example 1571],7.19
7,Cc1nn(Cc2ccc(C(=O)N3CCC[C@@H]3CO)cc2)c(C)c1NC(=O)c1cc(C(F)(F)F)nc2ccc(Br)cc12 [Example 1081],7.58
8,Cc1nn(Cc2ncco2)c(C)c1NC(=O)c1cc(C(F)(F)F)nc2ccc(Br)cc12 [Example 1506],7.45
9,"Cc1c(NC(=O)c2cc(C(N)=O)nc3cc(F)ccc23)c(C(F)(F)F)nn1Cc1ccc(CC#N)cc1 [Example 403, N^4-{1-[4-(cyanomethyl)benzyl]-5-methyl-3-(trifluoromethyl)-1H-pyrazol-4-yl}-7-fluoroquinoline-2,4-dicarboxamide]",9.00
10,"Cc1nn(Cc2ccc(F)c(Cl)c2)c(C)c1NC(=O)c1cc(C(F)(F)F)nc2cc(F)c(F)cc12 [Example 191, N-[1-(3-chloro-4-fluorobenzyl)-3,5-dimethyl-1H-pyrazol-4-yl]-6,7-difluoro-2-(trifluoromethyl)quinoline-4-carboxamide]",6.77
11,"Cc1nn(Cc2c(F)cc(C#N)cc2F)c(C)c1NC(=O)c1cc(C(N)=O)nc2cc(F)c(Cl)cc12 [Example 392, 6-chloro-N^4-[1-(4-cyano-2,6-difluorobenzyl)-3,5-dimethyl-1H-pyrazol-4-yl]-7-fluoroquinoline-2,4-dicarboxamide]",7.67
12,"Cc1c(NC(=O)c2cc(C(N)=O)nc3cc(F)c(Cl)cc23)c(C(F)(F)F)nn1Cc1c(F)cc(C#N)cc1F [Example 398, 6-chloro-N^4-[1-(4-cyano-2,6-difluorobenzyl)-5-methyl-3-(trifluoromethyl)-1H-pyrazol-4-yl]-7-fluoroquinoline-2,4-dicarboxamide]",8.26
13,Cc1c(NC(=O)c2cc(C(F)(F)F)nc3ccc(Br)cc23)c(C(F)(F)F)nn1Cc1ccc(C(=O)N2CCOCC2)cn1 [Example 1200],6.39
14,Cc1nn(Cc2ccc(C(=O)Nc3ccccn3)cc2)c(C)c1NC(=O)c1cc(C(F)(F)F)nc2ccc(Br)cc12 [Example 1064],7.73
15,"CCc1nn(Cc2ccc(C#N)cc2)c(C)c1NC(=O)c1cc(C(N)=O)nc2cc(F)ccc12 [Example 327, N^4-[1-(4-cyanobenzyl)-3-ethyl-5-methyl-1H-pyrazol-4-yl]-7-fluoroquinoline-2,4-dicarboxamide]",8.43
16,Cc1nn(Cc2ccc(F)cc2)c(C)c1NC(=O)c1c(C)c(O)nc2ccccc12 [Example 1272],5.50

row,SMILES,pIC50
1,Cc1nn(Cc2ccc(C(=O)N(C)CCO)cc2)c(C)c1NC(=O)c1cc(C(F)(F)F)nc2ccc(Br)cc12 [Example 1186],6.56
2,Cc1nn(Cc2ccc(O)cc2)c(C)c1NC(=O)c1cc(C(F)(F)F)nc2c(Cl)cc(Cl)cc12 [Example 1048],7.94
3,COc1cc(C(=O)Nc2c(C(F)(F)F)nn(Cc3ccc(C#N)cc3)c2C)c2cc(F)ccc2n1 [Example 1376],7.72
4,Cc1c(NC(=O)c2cc(C(N)=O)nc3ccccc23)c(C(F)(F)F)nn1Cc1cc(C(C)C)no1 [Example 1552],6.71
5,"COCCNc1ccc2nc(C(N)=O)cc(C(=O)Nc3c(C(F)(F)F)nn(Cc4ccc(C#N)cc4)c3C)c2c1 [Example 344, N^4-[1-(4-cyanobenzyl)-5-methyl-3-(trifluoromethyl)-1H-pyrazol-4-yl]-6-[(2-methoxyethyl)amino]quinoline-2,4-dicarboxamide]",8.24
6,"Cc1ccc2nc(C)cc(C(=O)Nc3c(C)nn(Cc4ccc(C(F)(F)F)cc4)c3C)c2c1 [Example 107, N-{3,5-dimethyl-1-[4-(trifluoromethyl)benzyl]-1H-pyrazol-4-yl}-2,6-dimethylquinoline-4-carboxamide]",6.23
7,Cc1nn(Cc2ccc(F)cc2F)c(C)c1NC(=O)c1cc(C(N)=O)nc2cc(F)ccc12 [Example 1487],8.92
8,Cc1nn(Cc2ccc(C(=O)NCc3cncn3C)cc2)c(C)c1NC(=O)c1cc(C(F)(F)F)nc2ccc(Br)cc12 [Example 1142],6.95
9,Cc1c(NC(=O)c2cc(C(N)=O)nc3cc(F)c(Cl)cc23)c(C(F)(F)F)nn1Cc1ccc(CC#N)cc1 [Example 1594],8.96
10,Cc1nn(Cc2ccc(C(=O)NCC3CC3(F)F)cc2)c(C)c1NC(=O)c1cc(C(F)(F)F)nc2ccc(Br)cc12 (stereo not shown) [Example 1123],7.15
11,COC(=O)c1cc(C(=O)Nc2c(C)nn(Cc3ccc(C#N)cc3)c2C)c2ccc(OC)cc2n1 [Example 1390],6.64
12,Cc1nn(Cc2ccc(CC#N)cc2)c(C)c1NC(=O)c1cc(C(N)=O)nc2cccc(F)c12 [Example 1612],8.62
13,CCc1nc(Cn2nc(C(F)(F)F)c(NC(=O)c3cc(C(N)=O)nc4ccccc34)c2C)no1 [Example 1535],7.65
14,"Cc1ccc2nc(C)cc(C(=O)Nc3c(C(F)(F)F)nn(Cc4ccc(C#N)cc4)c3C)c2c1 [Example 188, N-[1-(4-cyanobenzyl)-5-methyl-3-(trifluoromethyl)-1H-pyrazol-4-yl]-2,6-dimethylquinoline-4-carboxamide]",6.79
15,COc1cc(C(=O)Nc2c(C)nn(Cc3ccc(S(C)(=O)=O)cc3)c2C)c2ccccc2n1 [Example 1052],7.88
